In general, EC50 refers to the concentration that produces a half-maximal response.

In the assay the target is human NAMPT (Homo sapiens (Human), UniProt P43490). The assay can be described thus: NMN fluorescence biochemical assay (human recombinant NAMPT enzyme assay). An outline of the steps: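 Activation of recombinant human NAMPT (6 nM) was tested with 2.5 mM ATP, 20 μM PRPP and 150 μM nicotinamide in 50 mM HEPES pH 7.2 for 60 min at ambient temperature. NMN was derivatized with acetophenone/KOH/formic acid and read by fluorescence (355/460 nm) after 40 min.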
human NAMPT, sequence (P43490 whole entry): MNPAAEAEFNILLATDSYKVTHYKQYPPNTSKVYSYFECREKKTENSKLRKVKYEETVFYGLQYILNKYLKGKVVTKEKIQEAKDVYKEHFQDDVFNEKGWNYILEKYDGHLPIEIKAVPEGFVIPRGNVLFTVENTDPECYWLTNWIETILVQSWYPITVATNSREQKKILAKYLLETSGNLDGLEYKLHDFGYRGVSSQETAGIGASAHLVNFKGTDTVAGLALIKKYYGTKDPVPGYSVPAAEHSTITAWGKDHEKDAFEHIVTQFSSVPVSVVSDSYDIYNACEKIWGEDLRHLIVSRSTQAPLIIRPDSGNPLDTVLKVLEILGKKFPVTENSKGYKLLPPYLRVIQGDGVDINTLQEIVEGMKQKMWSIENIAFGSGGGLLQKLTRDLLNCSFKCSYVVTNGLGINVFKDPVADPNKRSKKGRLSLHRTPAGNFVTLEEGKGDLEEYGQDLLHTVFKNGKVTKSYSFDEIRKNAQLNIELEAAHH
Take `O=C1CN(C2COC2)[C@@H](c2ccc(NC(=O)OCc3ccc(Cl)cc3)cc2)CN1` [Compound 346, 4-chlorobenzyl (S)-(4-(1-(oxetan-3-yl)-5-oxopiperazin-2-yl)phenyl)carbamate]: the “AC1.4 Human” value turned out to be 13.52 µM and the EC50 stood at 45.3 µM.

As to `CCc1ncoc1C(=O)NCc1ccc(NC(=O)OCc2ccc(Cl)cc2)cc1` [Compound 347, (4-chlorophenyl)methyl N-(4-{[(4-ethyl-1,3-oxazol-5-yl)formamido]methyl}phenyl)carbamate], the “AC1.4 Human” value is 13.92 µM and the EC50 was found to be 34.8 µM.

As for `COCCN1CCC(c2ccc(NC(=O)OCc3cnco3)cc2)CC1` [Compound 348, 1,3-oxazol-5-ylmethyl N-{4-[1-(2-methoxyethyl)piperidin-4-yl]phenyl}carbamate], the “AC1.4 Human” value is 14.47 µM and the EC50 came to 35.9 µM.

Consider `O=C(Nc1ccc(Cc2ccncc2)cc1)OCc1ccncn1` [Compound 349, pyrimidin-4-ylmethyl (4-(pyridin-4-ylmethyl)phenyl)carbamate], for which the “AC1.4 Human” value was 15.55 µM and the EC50 came to 26 µM.

For the compound `O=C(Nc1ccc(Cc2ccns2)cc1)OCc1ccc(Cl)cc1` [Compound 350, 4-chlorobenzyl (4-(isothiazol-5-ylmethyl)phenyl)carbamate], the “AC1.4 Human” value worked out at 20.27 µM and the EC50 turned out to be 44.4 µM.

For `O=C(Nc1ccc(Cc2cncs2)cc1)OCc1ccc(Cl)cc1` [Compound 351, 4-chlorobenzyl (4-(thiazol-5-ylmethyl)phenyl)carbamate], the “AC1.4 Human” value is 22.18 µM and the EC50 was 37.3 µM.

For the compound `CN(C1COC1)S(=O)(=O)c1ccc(NC(=O)OCc2ccc(Cl)cc2)cc1` [Compound 352, 4-chlorobenzyl (4-(N-methyl-N-(oxetan-3-yl)sulfamoyl)phenyl)carbamate], the “AC1.4 Human” value was 22.88 µM and the EC50 came out at 46.3 µM.

Turning to `O=C(Nc1ccc(Cc2cocn2)cc1)OCc1ccc(Cl)cc1` [Compound 353, 4-chlorobenzyl (4-(oxazol-4-ylmethyl)phenyl)], the “AC1.4 Human” value was determined as 23.63 µM and the EC50 came out at 24.3 µM.

As for `O=C(Nc1ccc(COC2CN(C3COC3)C2)cc1)OCc1ccc(Cl)cc1` [Compound 354, 4-chlorobenzyl (4-(((1-(oxetan-3-yl)azetidin-3-yl)oxy)methyl)phenyl)carbamate], the “AC1.4 Human” value was found to be 23.64 µM and the 50% effective concentration (EC50) came out at 38.8 µM.

`Cn1cc(COC(=O)Nc2ccc(Cc3ccncc3)cc2)cn1` [Compound 355, (1-methyl-1H-pyrazol-4-yl)methyl (4-(pyridin-4-ylmethyl)phenyl)carbamate]: the “AC1.4 Human” value worked out at 25.86 µM and the EC50 came to 4.96 µM.

On to `Cc1ccc(S(=O)(=O)NCc2ccc(NC(=O)OCc3ccc(Cl)cc3)cc2)cn1` [Compound 356, (4-chlorophenyl)methyl N-{4-[(6-methylpyridine-3-sulfonamido)methyl]phenyl}carbamate], for which the “AC1.4 Human” value came to 29.04 µM and the EC50 stood at 18.2 µM.

For the compound `CC(C)C(=O)N1CC2(CC(c3ccc(NC(=O)OCc4cnco4)cc3)C2)C1` [Compound 357, oxazol-5-ylmethyl (4-(2-isobutyryl-2-azaspiro[3.3]heptan-6-yl)phenyl)carbamate], the “AC1.4 Human” value worked out at 1.09 µM and the EC50 was found to be 39.9 µM.

Take `CC(=O)N1CC2(CC(c3ccc(NC(=O)OCc4cnco4)cc3)C2)C1` [Compound 358, oxazol-5-ylmethyl (4-(2-acetyl-2-azaspiro[3.3]heptan-6-yl)phenyl)carbamate]: the “AC1.4 Human” value came out at 0.25 µM and the EC50 was found to be 28.9 µM.

On to `CS(=O)(=O)N1CCC[C@H](c2ccc(NC(=O)OCc3cnco3)cc2)C1` [Compound 365, oxazol-5-ylmethyl (R)-(4-(1-(methylsulfonyl)piperidin-3-yl)phenyl)carbamate], for which the “AC1.4 Human” value was determined as 0.33 µM and the EC50 came out at 38.6 µM.

The values above are taken from patent US20240279215A1 (Cytokinetics, Incorporated, priority 2022, published 2024).
